Laboratory results published in patent US12403144B2, “HECT E3 ligase inhibitors and uses thereof” (IFOM FONDAZIONE ISTITUTO FIRC DI ONCOLOGIA MOLECOLARE, priority 2019, dated 2025).
Counter-ions that a name gives are not always drawn.

Experiments:
[1] = target: T1, untagged HECT of NEDD4 wild-type (WT) (E3 ligase) (Homo sapiens, UniProt P46934); assay: In vitro ubiquitination assay TR-FRET based (self-ubiquitination of NEDD4); format: biochemical; conditions: for inhibition at 11 µM: pre-incubated for 1 hour, AUC of 120 minutes kinetic, read-out: percentages of inhibition (NEDD4)
T1 construct: untagged HECT of NEDD4 wild-type (WT) (E3 ligase); made in house
T1 sequence (P46934 519-900 isoform P46934-4 limits assumed): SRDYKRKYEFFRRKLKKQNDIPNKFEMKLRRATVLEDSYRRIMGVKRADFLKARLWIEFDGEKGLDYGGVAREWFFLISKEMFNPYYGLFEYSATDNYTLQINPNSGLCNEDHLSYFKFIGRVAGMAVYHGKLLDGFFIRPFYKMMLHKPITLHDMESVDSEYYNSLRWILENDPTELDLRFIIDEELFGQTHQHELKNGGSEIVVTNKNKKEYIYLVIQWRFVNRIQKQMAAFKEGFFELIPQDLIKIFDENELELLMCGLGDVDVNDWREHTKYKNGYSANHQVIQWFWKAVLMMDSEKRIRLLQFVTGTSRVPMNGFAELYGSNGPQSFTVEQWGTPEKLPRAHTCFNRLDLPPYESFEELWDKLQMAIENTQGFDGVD
Method in brief: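 Mix of E1, His-UBE2D3 and untagged NEDD4 HECT (final 30, 350, 50 nM) with Eu-cryptate/Cy5/unlabelled ubiquitin in pH 7.6 Tris buffer, compounds (100–0.005 μM dilution series) pre-incubated 1 h, then started with ATP. 665/620 nm TR-FRET followed 120 min; % inhibition from AUC versus DMSO, no-ATP background.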

[2] = target: T2, His-MPB tagged HECT of HECW2 (E3 ligase) (Homo sapiens, UniProt Q9P2P5); assay: In vitro ubiquitination assay TR-FRET based, HECW2; format: biochemical; conditions: read-out: percentage of inhibition (HECW2)
T2 construct: using His-MPB tagged HECT of HECW2 (E3 ligase) instead of untagged HECT of NEDD4 wild-type (WT) (E3 ligase); made in house
T2 sequence (Q9P2P5 1237-1572 limits assumed): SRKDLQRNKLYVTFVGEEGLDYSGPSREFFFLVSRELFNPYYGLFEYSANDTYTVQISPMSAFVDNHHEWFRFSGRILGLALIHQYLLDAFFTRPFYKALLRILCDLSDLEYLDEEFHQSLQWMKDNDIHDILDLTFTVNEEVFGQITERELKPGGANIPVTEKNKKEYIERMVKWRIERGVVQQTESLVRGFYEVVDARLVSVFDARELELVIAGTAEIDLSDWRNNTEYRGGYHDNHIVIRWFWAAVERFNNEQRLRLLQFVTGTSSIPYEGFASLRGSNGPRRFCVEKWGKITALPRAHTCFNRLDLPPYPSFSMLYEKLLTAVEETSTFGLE
Description: To determine the selectivity of identified NEDD4 inhibitors, it was quantitatively measured the self-ubiquitination process of the E3 HECT ligase belonging to NEDD4 family such as NEDD4L, HECW2 and ITCH in presence or not of some compounds such as 5, 9, 12, 29, 42, 45, 56, 58, 61, 77, 78, 85 and 94 employing TR-FRET based assays.
The assay was performed as described above in the paragraph titled “In vitro ubiquitination assay TR-FRET based” under the heading “2.1. NEDD4 UBIQUITINATION ASSAYS” using His-MPB tagged HECT of HECW2 (E3 ligase) instead of untagged HECT of NEDD4 wild-type (WT) (E3 ligase). In this case, final E1, E2 and E3 concentrations in the assay buffer (Tris-HCl pH 7.6 25 mM, NaCl 100 mM, MgCl2 5 mM and Tween 0.01%) were 30, 350 and 62.5 nanomolars, respectively. His-MPB tagged HECT of HECW2 (E3 ligase) enzyme was produced and purified as reported in E. Maspero et al. Methods Mol Biol. 1449:153-60 (2016) and in E. Maspero et al. EMBO Reports 12:342-349(2011).

inhibition at 11 µM [1] | inhibition at 11 µM [2] | SMILES | inhibition of enzymatic activity, TR-FRET kinetic assay (% of signal/background during the time) ([1]; FIG. 1, HECT NEDD4 WT, concentrations indicated in the figure)
> 50% | < 15% | CCOC(=O)/C=C/CNCCCCN1c2cc(Cl)ccc2C(=O)N(C)c2ccccc21 [Compound 42, Ethyl (E)-4-{[4-(3-chloro-10-methyl-11-oxo-10,11-dihydro-5H-dibenzo[b,e][1,4]diazepin-5-yl)butyl]amino}but-2-enoate maleate] | –
> 50% | < 15% | C#CCON(C)C(=O)/C=C/CN(C)CCCCN1c2ccccc2CCc2ccc(Cl)cc21 [Compound 77, (E)-4-[4-(3-Chloro-10,11-dihydro-5H-dibenzo[b,f]azepin-5-yl)butyl-methyl-amino]-N-methyl-N-prop-2-ynoxy-but-2-enamide maleate] | –
> 50% | < 5% | CN(C/C=C/C#N)CCCCN1c2cc(Cl)ccc2C(=O)N(Cc2ccccc2)c2ccccc21 [Compound 61, (E)-4-{[4-(10-benzyl-3-chloro-11-oxo-10,11-dihydro-5H-dibenzo[b,e][1,4]diazepin-5-yl)butyl](methyl)amino}but-2-enenitrile maleate] | –
> 50% | < 15% | CCOC(=O)/C=C/CNCCCCN1c2cc(Cl)ccc2C(=O)N(Cc2ccccc2)c2ccccc21 [Compound 56, Ethyl (E)-4-((4-(10-benzyl-3-chloro-11-oxo-10,11-dihydro-5H-dibenzo[b,e][1,4]diazepin-5-yl)butyl)amino)but-2-enoate maleate] | –
> 50% | < 15% | CCOC(=O)/C=C/CNCCCCN1c2ccccc2C(=O)N(C)c2ccc(Cl)cc21 [Compound 29, Ethyl (E)-4-{[4-(7-chloro-10-methyl-11-oxo-10,11-dihydro-5H-dibenzo[b,e][1,4]diazepin-5-yl)butyl]amino}but-2-enoate maleate] | –
> 50% | < 20% | CCOC(=O)/C=C/CNCCCCN1c2ccccc2C(=O)N(Cc2ccccc2)c2ccc(Cl)cc21 [Compound 45, Ethyl (E)-4-{[4-(10-benzyl-7-chloro-11-oxo-10,11-dihydro-5H-dibenzo[b,e][1,4]diazepin-5-yl)butyl]amino}but-2-enoate maleate] | –
> 50% | < 5% | CON(C)C(=O)/C=C/CN(C)CCCCN1c2ccccc2CCc2ccc(Cl)cc21 [Compound 9, (E)-4-[4-(3-Chloro-10,11-dihydro-5H-dibenzo[b,f]azepin-5-yl)butyl-methyl-amino]-N-methoxy-N-methyl-but-2-enamide] | –
> 50% | < 5% | CONC(=O)/C=C/CNCCCCN1c2ccccc2CCc2ccc(Cl)cc21 [Compound 78, (E)-4-[4-(3-Chloro-10,11-dihydro-5H-dibenzo[b,f]azepin-5-yl)butylamino]-N-methoxy-but-2-enamide maleate] | –
> 50% | < 5% | CCOC(=O)/C=C/CNCCCCN1c2ccccc2CCc2ccc(Cl)cc21.O=C(O)/C=C\C(=O)O [Compound 12, Ethyl (E)-4-[4-(3-chloro-10,11-dihydro-5H-dibenzo[b,f]azepin-5-yl)butylamino]but-2-enoate maleate] | dose dependent inhibition of enzymatic activity
> 50% | < 15% | CCOC(=O)/C=C/CCNCCCN1c2ccccc2CCc2ccc(Cl)cc21 [Compound 5, Ethyl (E)-5-[3-(3-chloro-10,11-dihydro-5H-dibenzo[b,f]azepin-5-yl)propylamino]pent-2-enoate maleate] | –
> 50% | < 5% | CONC(=O)/C=C/CN(C)CCCCN1c2ccccc2CCc2ccc(Cl)cc21 [Compound 85, (E)-4-[4-(3-Chloro-10,11-dihydro-5H-dibenzo[b,f]azepin-5-yl)butyl-methyl-amino]-N-methoxy-but-2-enamide maleate] | –
> 50% | < 5% | COC(=O)/C=C/CN(C)CCCCN1c2cc(Cl)ccc2C(=O)N(Cc2ccccc2)c2ccccc21 [Compound 58, Methyl (E)-4-{[4-(10-benzyl-3-chloro-11-oxo-10,11-dihydro-5H-dibenzo[b,e][1,4]diazepin-5-yl)butyl](methyl)amino}but-2-enoate maleate] | –
> 50% | < 15% | CN(C/C=C/C(=O)OCCOCCOCCOCCNC(=O)CCCC[C@@H]1SC[C@@H]2NC(=O)N[C@@H]21)CCCCN1c2ccccc2CCc2ccc(Cl)cc21 [Compound 94, 2-[2-(2-{2-[5-((3aS,4S,6aR)-2-Oxo-hexahydro-thieno[3,4-d]imidazol-4-yl)-pentanoylamino]-ethoxy}-ethoxy)-ethoxy]-ethyl (E)-4-{[4-(3-chloro-10,11-dihydro-dibenzo[b,f]azepin-5-yl)-butyl]-methyl-amino}but-2-enoate] | –
